Data: the kinase profiling compilation of Christmann-Franck et al. (2016)

Tests used:
Test in all cases: KINOMEscan competition binding
Conditions in all cases: compound 10.0 µM
CAMK1G (human) = CAMK1G (human) (UniProt Q96NX5)
CDC42BPA (human) = CDC42BPA (human) (UniProt Q5VT25)
CIT (human) = CIT (human) (UniProt O14578)
PLK1 (human) = PLK1 (human) (UniProt P53350)
[1] = tested on: KIT (human), P10721 [D816H]
RPS6KA2 KD2 (human) = RPS6KA2 KD2 (human) (UniProt Q15349)
GSK3B (human) = GSK3B (human) (UniProt P49841)
CDK16 (human) = CDK16 (human) (UniProt Q00536)
CDK8 (human) = CDK8 (human) (UniProt P49336)
MYLK2 (human) = MYLK2 (human) (UniProt Q9H1R3)
TSSK1B (human) = TSSK1B (human) (UniProt Q9BXA7)
NTRK3 (human) = NTRK3 (human) (UniProt Q16288)
STK32B (human) = STK32B (human) (UniProt Q9NY57)
ACVR1B (human) = ACVR1B (human) (UniProt P36896)
PHKG1 (human) = PHKG1 (human) (UniProt Q16816)
FGR (human) = FGR (human) (UniProt P09769)
[2] = target: TYK2 JH2 pseudokinase (human) (UniProt P29597)
CHUK (human) = CHUK (human) (UniProt O15111)
CSNK2A1 (human) = CSNK2A1 (human) (UniProt P68400)
NUAK1 (human) = NUAK1 (human) (UniProt O60285)
FRK (human) = FRK (human) (UniProt P42685)
ICK (human) = ICK (human) (UniProt Q9UPZ9)
STK25 (human) = STK25 (human) (UniProt O00506)
ROS1 (human) = ROS1 (human) (UniProt P08922)
NTRK1 (human) = NTRK1 (human) (UniProt P04629)
PAK1 (human) = PAK1 (human) (UniProt Q13153)
EPHB2 (human) = EPHB2 (human) (UniProt P29323)
ADCK4 (human) = ADCK4 (human) (UniProt Q96D53)
ROCK2 (human) = ROCK2 (human) (UniProt O75116)
MAP3K9 (human) = MAP3K9 (human) (UniProt P80192)
MAP2K1 (human) = MAP2K1 (human) (UniProt Q02750)
STK33 (human) = STK33 (human) (UniProt Q9BYT3)
NEK7 (human) = NEK7 (human) (UniProt Q8TDX7)
PLK3 (human) = PLK3 (human) (UniProt Q9H4B4)
TBK1 (human) = TBK1 (human) (UniProt Q9UHD2)
CSNK1A1L (human) = CSNK1A1L (human) (UniProt Q8N752)
STK4 (human) = STK4 (human) (UniProt Q13043)
FER (human) = FER (human) (UniProt P16591)
MUSK (human) = MUSK (human) (UniProt O15146)
PIK3CA (human) = PIK3CA (human) (UniProt P42336)

Chain of STK32B (human) (Q9NY57 whole entry, looked up): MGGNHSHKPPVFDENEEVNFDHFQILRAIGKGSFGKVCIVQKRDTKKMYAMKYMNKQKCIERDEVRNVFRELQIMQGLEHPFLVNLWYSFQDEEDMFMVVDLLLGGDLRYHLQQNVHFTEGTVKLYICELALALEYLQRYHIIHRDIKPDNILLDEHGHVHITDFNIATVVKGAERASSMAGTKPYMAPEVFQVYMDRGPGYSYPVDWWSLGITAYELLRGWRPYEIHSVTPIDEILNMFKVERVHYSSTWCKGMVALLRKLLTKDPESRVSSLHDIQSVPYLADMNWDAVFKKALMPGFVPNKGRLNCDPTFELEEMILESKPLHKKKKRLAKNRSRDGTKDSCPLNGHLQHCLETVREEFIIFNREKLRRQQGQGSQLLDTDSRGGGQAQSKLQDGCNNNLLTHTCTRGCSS
Chain of NTRK1 (human) (P04629 whole entry, looked up): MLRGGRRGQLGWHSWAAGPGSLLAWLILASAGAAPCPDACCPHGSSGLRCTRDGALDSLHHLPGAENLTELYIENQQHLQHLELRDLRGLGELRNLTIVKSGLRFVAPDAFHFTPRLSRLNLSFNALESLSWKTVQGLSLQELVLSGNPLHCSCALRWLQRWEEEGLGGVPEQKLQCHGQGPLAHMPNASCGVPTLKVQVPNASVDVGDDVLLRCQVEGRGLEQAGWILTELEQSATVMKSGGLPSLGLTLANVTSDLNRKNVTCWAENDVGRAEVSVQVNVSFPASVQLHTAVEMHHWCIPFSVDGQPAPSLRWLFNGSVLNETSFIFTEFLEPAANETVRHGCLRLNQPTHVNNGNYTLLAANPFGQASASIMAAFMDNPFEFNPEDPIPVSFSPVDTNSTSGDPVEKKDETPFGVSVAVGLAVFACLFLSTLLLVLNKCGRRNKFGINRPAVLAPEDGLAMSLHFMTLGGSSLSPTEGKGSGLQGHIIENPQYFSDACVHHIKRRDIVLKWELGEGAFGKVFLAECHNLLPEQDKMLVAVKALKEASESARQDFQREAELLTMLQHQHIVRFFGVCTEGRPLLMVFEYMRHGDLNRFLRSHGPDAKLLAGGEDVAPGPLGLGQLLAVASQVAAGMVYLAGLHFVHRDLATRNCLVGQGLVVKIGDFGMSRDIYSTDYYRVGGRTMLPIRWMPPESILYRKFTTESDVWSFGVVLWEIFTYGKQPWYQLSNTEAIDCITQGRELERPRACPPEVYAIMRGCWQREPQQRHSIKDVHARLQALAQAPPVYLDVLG
Chain of NUAK1 (human) (O60285 whole entry, looked up): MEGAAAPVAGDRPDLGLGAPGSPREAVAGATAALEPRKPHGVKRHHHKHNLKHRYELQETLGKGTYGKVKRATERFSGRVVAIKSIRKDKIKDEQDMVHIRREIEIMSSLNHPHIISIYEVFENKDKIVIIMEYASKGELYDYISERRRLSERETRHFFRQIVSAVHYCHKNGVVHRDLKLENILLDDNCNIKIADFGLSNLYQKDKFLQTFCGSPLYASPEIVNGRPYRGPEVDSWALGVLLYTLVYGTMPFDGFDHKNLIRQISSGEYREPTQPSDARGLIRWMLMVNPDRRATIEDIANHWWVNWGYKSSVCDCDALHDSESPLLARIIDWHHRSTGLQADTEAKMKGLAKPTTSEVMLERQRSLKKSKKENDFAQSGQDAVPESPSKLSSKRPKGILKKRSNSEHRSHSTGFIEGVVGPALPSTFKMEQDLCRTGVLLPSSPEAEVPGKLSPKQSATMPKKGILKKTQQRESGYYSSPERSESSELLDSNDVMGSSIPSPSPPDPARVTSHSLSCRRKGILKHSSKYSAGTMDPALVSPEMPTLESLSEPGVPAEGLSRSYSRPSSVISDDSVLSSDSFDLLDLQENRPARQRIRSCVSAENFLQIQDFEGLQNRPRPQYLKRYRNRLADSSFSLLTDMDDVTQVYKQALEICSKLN
Chain of EPHB2 (human) (P29323 whole entry, looked up): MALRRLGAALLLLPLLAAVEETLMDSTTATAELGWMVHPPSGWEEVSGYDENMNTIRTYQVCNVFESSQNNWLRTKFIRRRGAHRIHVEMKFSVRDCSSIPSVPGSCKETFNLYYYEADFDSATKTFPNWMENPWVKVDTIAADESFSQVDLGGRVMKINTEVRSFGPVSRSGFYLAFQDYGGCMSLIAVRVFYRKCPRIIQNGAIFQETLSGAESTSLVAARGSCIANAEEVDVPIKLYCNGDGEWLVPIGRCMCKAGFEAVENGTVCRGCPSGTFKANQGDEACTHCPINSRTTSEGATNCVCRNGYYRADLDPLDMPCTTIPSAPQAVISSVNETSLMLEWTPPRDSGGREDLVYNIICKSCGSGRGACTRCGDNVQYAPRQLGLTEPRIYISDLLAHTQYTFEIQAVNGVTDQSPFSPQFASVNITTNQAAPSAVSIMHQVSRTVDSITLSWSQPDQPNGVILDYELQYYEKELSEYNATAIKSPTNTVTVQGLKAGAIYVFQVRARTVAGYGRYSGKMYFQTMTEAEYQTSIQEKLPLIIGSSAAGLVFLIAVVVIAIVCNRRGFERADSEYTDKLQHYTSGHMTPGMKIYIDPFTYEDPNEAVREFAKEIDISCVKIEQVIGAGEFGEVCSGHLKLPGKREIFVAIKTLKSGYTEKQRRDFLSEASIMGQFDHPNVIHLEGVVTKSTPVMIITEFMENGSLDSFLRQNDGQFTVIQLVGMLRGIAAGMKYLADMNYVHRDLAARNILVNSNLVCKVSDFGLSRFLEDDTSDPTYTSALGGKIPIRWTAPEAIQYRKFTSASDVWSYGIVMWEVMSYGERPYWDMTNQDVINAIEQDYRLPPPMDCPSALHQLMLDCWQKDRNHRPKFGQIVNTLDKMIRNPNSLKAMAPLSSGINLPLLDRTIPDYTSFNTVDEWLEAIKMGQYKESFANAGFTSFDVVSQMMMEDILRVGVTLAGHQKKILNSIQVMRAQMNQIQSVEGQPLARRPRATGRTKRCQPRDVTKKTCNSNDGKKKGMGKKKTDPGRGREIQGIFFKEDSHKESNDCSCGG
Chain of PLK3 (human) (Q9H4B4 whole entry, looked up): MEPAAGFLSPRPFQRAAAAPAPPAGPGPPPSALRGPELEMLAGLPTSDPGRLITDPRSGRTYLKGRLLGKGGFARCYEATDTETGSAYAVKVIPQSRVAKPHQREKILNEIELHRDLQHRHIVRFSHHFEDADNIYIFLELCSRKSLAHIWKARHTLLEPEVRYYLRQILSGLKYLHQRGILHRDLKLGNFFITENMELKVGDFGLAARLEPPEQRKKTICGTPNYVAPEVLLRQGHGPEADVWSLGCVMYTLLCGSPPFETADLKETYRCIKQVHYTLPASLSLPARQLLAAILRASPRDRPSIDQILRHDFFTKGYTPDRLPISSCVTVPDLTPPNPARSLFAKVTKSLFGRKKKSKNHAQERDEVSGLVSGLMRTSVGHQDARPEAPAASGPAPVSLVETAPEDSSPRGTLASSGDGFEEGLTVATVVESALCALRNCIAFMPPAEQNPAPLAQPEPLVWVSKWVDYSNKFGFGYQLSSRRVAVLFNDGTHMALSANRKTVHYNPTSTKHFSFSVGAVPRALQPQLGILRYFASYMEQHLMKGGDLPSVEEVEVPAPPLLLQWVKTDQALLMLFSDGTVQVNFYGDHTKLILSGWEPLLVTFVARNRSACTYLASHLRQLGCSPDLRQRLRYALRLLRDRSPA
Chain of FRK (human) (P42685 whole entry, looked up): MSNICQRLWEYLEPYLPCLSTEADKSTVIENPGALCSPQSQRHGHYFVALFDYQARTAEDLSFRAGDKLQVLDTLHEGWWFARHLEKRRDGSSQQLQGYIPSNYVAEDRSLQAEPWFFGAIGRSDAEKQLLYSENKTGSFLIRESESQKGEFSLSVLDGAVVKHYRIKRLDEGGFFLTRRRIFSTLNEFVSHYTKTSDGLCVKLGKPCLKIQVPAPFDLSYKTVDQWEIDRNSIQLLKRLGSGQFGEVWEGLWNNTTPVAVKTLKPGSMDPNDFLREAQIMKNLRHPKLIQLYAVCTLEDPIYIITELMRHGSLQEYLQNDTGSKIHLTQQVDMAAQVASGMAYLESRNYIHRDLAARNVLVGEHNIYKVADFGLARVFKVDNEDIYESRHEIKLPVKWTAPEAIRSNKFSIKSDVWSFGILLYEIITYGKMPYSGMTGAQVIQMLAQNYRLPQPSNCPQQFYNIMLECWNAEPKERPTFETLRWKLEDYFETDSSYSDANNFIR
Chain of CSNK1A1L (human) (Q8N752 whole entry, looked up): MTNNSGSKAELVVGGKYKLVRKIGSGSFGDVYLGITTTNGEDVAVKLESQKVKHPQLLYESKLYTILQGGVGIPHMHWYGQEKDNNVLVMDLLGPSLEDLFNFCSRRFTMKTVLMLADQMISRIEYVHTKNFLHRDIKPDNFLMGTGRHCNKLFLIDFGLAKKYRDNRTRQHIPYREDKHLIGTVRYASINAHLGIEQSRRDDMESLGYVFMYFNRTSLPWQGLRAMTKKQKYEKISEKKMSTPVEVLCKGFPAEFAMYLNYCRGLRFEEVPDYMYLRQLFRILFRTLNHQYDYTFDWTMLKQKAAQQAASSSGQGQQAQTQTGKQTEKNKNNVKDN
Chain of MAP2K1 (human) (Q02750 whole entry, looked up): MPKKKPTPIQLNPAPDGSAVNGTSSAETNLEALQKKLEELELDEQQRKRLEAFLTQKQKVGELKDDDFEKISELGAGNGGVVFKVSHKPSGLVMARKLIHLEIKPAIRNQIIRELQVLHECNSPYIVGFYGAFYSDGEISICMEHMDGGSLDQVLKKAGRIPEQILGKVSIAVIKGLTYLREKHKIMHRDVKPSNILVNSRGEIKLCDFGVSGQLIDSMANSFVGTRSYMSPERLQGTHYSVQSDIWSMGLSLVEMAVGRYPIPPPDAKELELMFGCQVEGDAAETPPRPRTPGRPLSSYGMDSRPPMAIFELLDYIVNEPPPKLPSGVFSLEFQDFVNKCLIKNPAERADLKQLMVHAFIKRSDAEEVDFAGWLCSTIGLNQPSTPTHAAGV

N#C/C(=C1/Nc2ccccc2S1)c1ccnc(NCCc2cccnc2)n1
kinase still bound, per cent of control (CAMK1G (human)): 61%
kinase still bound, per cent of control (CDC42BPA (human)): 83%
kinase still bound, per cent of control (CIT (human)): 59%
kinase still bound, per cent of control (PLK1 (human)): 72%
kinase still bound, per cent of control [1]: 72%
kinase still bound, per cent of control (RPS6KA2 KD2 (human)): 56%
kinase still bound, per cent of control (GSK3B (human)): 0.15%
kinase still bound, per cent of control (CDK16 (human)): 44%
kinase still bound, per cent of control (CDK8 (human)): 100%
kinase still bound, per cent of control (MYLK2 (human)): 100%
kinase still bound, per cent of control (TSSK1B (human)): 100%
kinase still bound, per cent of control (NTRK3 (human)): 69%
kinase still bound, per cent of control (STK32B (human)): 100%
kinase still bound, per cent of control (ACVR1B (human)): 84%
kinase still bound, per cent of control (PHKG1 (human)): 100%
kinase still bound, per cent of control (FGR (human)): 100%
kinase still bound, per cent of control [2]: 1.4%
kinase still bound, per cent of control (CHUK (human)): 42%
kinase still bound, per cent of control (CSNK2A1 (human)): 0.4%
kinase still bound, per cent of control (NUAK1 (human)): 100%
kinase still bound, per cent of control (FRK (human)): 100%
kinase still bound, per cent of control (ICK (human)): 64%
kinase still bound, per cent of control (STK25 (human)): 60%
kinase still bound, per cent of control (ROS1 (human)): 100%
kinase still bound, per cent of control (NTRK1 (human)): 57%
kinase still bound, per cent of control (PAK1 (human)): 77%
kinase still bound, per cent of control (EPHB2 (human)): 100%
kinase still bound, per cent of control (ADCK4 (human)): 45%
kinase still bound, per cent of control (ROCK2 (human)): 23%
kinase still bound, per cent of control (MAP3K9 (human)): 74%
kinase still bound, per cent of control (MAP2K1 (human)): 9.6%
kinase still bound, per cent of control (STK33 (human)): 86%
kinase still bound, per cent of control (NEK7 (human)): 84%
kinase still bound, per cent of control (PLK3 (human)): 12%
kinase still bound, per cent of control (TBK1 (human)): 81%
kinase still bound, per cent of control (CSNK1A1L (human)): 67%
kinase still bound, per cent of control (STK4 (human)): 100%
kinase still bound, per cent of control (FER (human)): 100%
kinase still bound, per cent of control (MUSK (human)): 100%
kinase still bound, per cent of control (PIK3CA (human)): 100%
